# Measured values as given in patent US4873263A, “Rectally absorbable form of L-dopa” (priority 1988, dated 1989).
# Counter-ions that a name gives are not always drawn. Like-named read-outs stand apart in the source and are kept apart here.
# Assays:
# [1] = Rat plasma L-dopa and bioavailability after rectal microenema with carbidopa (Example 2); design: species or system rats; conditions: in vivo
# Protocol: The experimental conditions of Example 1 were repeated, except that each formulation also contained 0.5 mg carbidopa, a decarboxylase inhibitor which is included to decrease L-dopa metabolism.
# [2] = dog, in vivo; cited from earlier work
# [3] = L-dopa bioavailability in Beagle dogs after rectal administration, oral carbidopa pretreatment (Example 3); assay type: in vivo; conditions: in words
# Protocol: Aqueous formulations (pH 5.5, 0.1% ascorbic acid, 0.1 ml) containing […] L-dopa ethyl ester HCl (equivalent to 50 mg L-dopa) were prepared for administration to Beagle dogs. Each dog received the rectal formulation following a 3-day pretreatment with oral carbidopa (25 mg b.i.d.). Blood samples were collected for 360 minutes and plasma L-dopa levels determined by HPLC.
# [4] = rat, in vivo
# Protocol: Aqueous microenemas (250 μl) containing either 2.0 mg L-dopa or 2.66 mg L-dopa ethyl ester HCl (equivalent to 2.0 mg L-dopa) were prepared. The solutions were adjusted to pH 5.5 and contained 0.02% ascorbic acid to prevent oxidation. Blood samples were collected following rectal administration to anesthetized rats, and plasma L-dopa determined by HPLC.
smiles,measurement,setting,value
CCOC(=O)[C@@H](N)Cc1ccc(O)c(O)c1 [L-dopa ethyl ester HCl],Percent L-dopa Bioavailability,[1],62 ± 32.7%
same,absorption by the rectal route in dogs,[2],not significantly absorbed in dogs
same,plasma drug levels,[3],significant increase in plasma drug levels
same,Percent L-dopa Bioavailability,[4],12 ± 2.4%
same,plasma levels of L-dopa,[4],significantly higher plasma levels of L-dopa
